In brackets after ≈: the same amount, converted by molar mass. Where two headings read alike, the source gives them in different places.
What was measured:
[1] = Test 3: palatability and growth study in Atlantic salmon, tilmicosin base versus phosphate salt; type: in vivo, Atlantic salmon (Salmo salar); settings: 800 mg/kg of diet (free base equivalent), four weeks; cause of death could not be determined
Description: Test 3: Palatability and Growth Studies in Atlantic Salmon, Comparing Tilmicosin Base and Phosphate Salt
A trial was conducted to determine the palatability to Atlantic salmon (Salmo salar), St. John River strain, of diets containing either tilmicosin (free base) or tilmicosin phosphate. Pre-smolt salmon, each weighing about 50 grams, from a certified disease free stock, were used. The salmon, 30 per tank and 9 tanks, were acclimatized for about two weeks. During this period and throughout the trial, the tanks were maintained with fresh single-pass flow-through well water, 2 liters per minute, 12 ± 1°C., and the photoperiod was 12/12. During the acclimatization, all fish were fed a standard feed. Thereafter the salmon in three tanks continued to receive the standard diet, to serve as a control. The salmon in three other tanks received a modified diet containing 800 mg of tilmicosin (free base) per kilogram of diet; the salmon in the last three tanks received a modified diet containing tilmicosin phosphate in an amount equivalent to 800 mg of tilmicosin (free base) per kilogram of diet. […] The trial was continued for a four-week period, during which these parameters were evaluated: feed intake feed intake as % of body weight weight gain weight gain as % of body weight feed conversion All surviving fish were euthanized. […]

[2] = tested on: Renibacterium salmoninarum; test: In vitro evaluation of tilmicosin against Renibacterium salmoninarum (MIC); type: cell-based; settings: for MIC: Renibacterium salmoninarum, read-out: minimum inhibitory concentration (MIC)
Description: Test 1: In vitro evaluation of tilmicosin against Renibacterium salmoninarum.
A dozen strains of Renibactenum salmoninarum were obtained and cultured in standard procedures. Eight grew successfully and were employed in the evaluation of tilmicosin.
Tilmicosin was evaluated at various concentrations and the minimum inhibitory concentration (MIC) determined for each of the strains. For three of the strains, the MIC was 1 µg/ml; for the remaining five strains, the MIC was 2 µg/ml.

[3] = Test 2: palatability and growth study in Atlantic salmon, medicated diets, four weeks; type: in vivo, Atlantic salmon (Salmo salar); settings: all fish at the end of the four-week study
Description: Test 2: Palatability and growth studies in Atlantic salmon.
A trial was conducted to determine the palatability and effect on growth of Atlantic salmon (Salmo salar), St. John River strain, of diets containing various concentrations of tilmicosin. Pre-smolt salmon, each weighing about 50 grams, from a stock certified to be free of bacterial kidney disease, were used. The fish were acclimatized for four weeks. During this period, the fish were in tanks maintained with fresh single-pass flow-through well water, 10±2°C., and a photoperiod of 12/12. Water flow rate was adequate to provide a dissolved oxygen concentration of ≧ 5 mg/liter post feeding and under conditions of normal activity provided a dissolved oxygen concentration of ≧ 8 mg/liter. All fish were fed a standard diet. […]
All fish were fed 3× on weekdays and 1× or 2× on weekend days. […] The trial lasted four weeks, and the following parameters were determined: feed intake feed intake as % of body weight weight gain weight gain as % of body weight feed conversion At the end of the four weeks, the fish were sacrificed and tissue from liver, muscle, and kidney analyzed for tilmicosin by an HPLC assay. […] Quantitative determination of tilmicosin was accomplished by reversed-phase HPLC with a phenylsilyl stationary phase and a U.V. absorption detector at 280 nm. […]

MIC ([2]; remaining five of the eight strains)	MIC ([2]; three of the eight strains)	Post-mortem examination [3]	Compound	mortality [1]	growth ([2]; lower concentrations down to 0.25 µg/ml)
			tilmicosin phosphate	One fish from the tank receiving tilmicosin phosphate died	
2 mg/L (≈ 2.3 µM)	1 mg/L (≈ 1.15 µM)	no gross abnormalities	CC[C@H]1OC(=O)C[C@@H](O)[C@H](C)[C@@H](O[C@@H]2O[C@H](C)[C@@H](O)[C@H](N(C)C)[C@H]2O)[C@@H](CCN2C[C@H](C)C[C@H](C)C2)C[C@@H](C)C(=O)/C=C/C(C)=C/[C@@H]1CO[C@@H]1O[C@H](C)[C@@H](O)[C@@H](OC)[C@H]1OC [tilmicosin]		dramatic reduction in growth

Reference: EP0606747A1, “Tilmicosin and derivatives for treating gram-positive diseases of aquatic species” (ELI LILLY AND COMPANY, priority 1992, dated 1994)
